Here are results for ten molecules from patent US20060069021A1, “Compositions and methods for intranasal administration of inactive analogs of PTH or inactivated preparations of PTH or PTH analogs” (Nastech Pharmaceutical Company Inc., priority 2004, published 2006).

The subject of one series is ciliary motility. The settings on record: cited from earlier work.
For series [1] the following is noted: rats, intraduodenal, with 1% (w/v) saline dispersion of polycarbophil; cited from earlier work.
The subject of the next series is aminopeptidases. To be noted: cited from earlier work.
For series [2] the following is noted: aqueous solution at physiologic pH; cited from earlier work.
Another series concerns ovariectomized rat model. The settings on record: cited from earlier work.
Series [3] relates to Type II collagen production by human chondrocytes. Put plainly: Cartilage growth model: human chondrocytes in alginate beads, type II collagen ELISA. The format is cell-based. Here is the method: A. Approximately 3 million human chondrocyte cells (Cell Applications, Inc., San Diego, Calif.) encapsulated in alginate beads were received in 25 mL total volume of re-differentiated medium. Human chondrocytes in alginate beads produce their phenotypic markers such as aggrecan and type II collagen unlike in monolayer culture where chondrocytes lose their phenotypic characteristics and de-differentiate to fibroblast-like cells. Alginate based cell system was pursued to assess type II collagen expression as result of PTH dosing and therefore indication of any cartilage growth.
B. The cell-containing alginate bead suspension was transferred from cell culture flask to 50 mL conical tubes. A volume of 500 μL (˜62,500 cells per well) suspension was dispensed per well in 24-well plates. Samples were added to each well and final volume was brought to one milliliter with appropriate growth media. Controls included cells treated with re-differentiated media as positive control (Cell Applications, Inc., San Diego, Calif.), cells treated with chondrocyte growth media (Cell Applications, Inc., San Diego, Calif.) and basal media (Cell Applications, Inc., San Diego, Calif.) as negative controls.
C. Plates were swirled gently to allow homogenous mixture of each sample. Plates were placed in 37° C., 5% CO2 incubator. Human chondrocytes were grown for up to 12 days on longer. Appropriate growth media were replaced every second or third day. Alginate beads were prepared for type II collagen extraction on the last day of the experiment and extracted collagen was quantified using Native Type II Collagen Detection Kit (Chondrex Inc., Redmond Wash.). Pictures of cells immediately following the samples application and at several time points during the course of experiment were taken using the Olympus CK40 microscope and Nikon Cool Pix 4500 digital camera.
D. A capture ELISA kit (Native Type II Collagen Detection Kit, Chondrex Inc.) was used to measure native type II collagen. For measuring glycosaminoglycans, the kit used was Blyscan Sulfated Glycosaminoglycan Assay kit (Accurate Chemical & Scientific Corp.).
Next, the alginate-based cell system (cartilage growth model; refer to Example 2) was used to determine whether PTH dosing could stimulate chondrocytes to produce cartilage. […] Type II collagen is a major component of the extracelluar matrix of nasal cartilage and therefore was used as a molecular marker for cartilage growth in this assay.
The cell-containing alginate beads were incubated in the presence of various test solutions for 12 days at 37° C., 5% CO2. After the incubation, the alginate beads were processed using an extraction method in order to quantify the production of type II collagen.

The conditions of series [4]: anesthetized rats, cited from earlier work.
Series [5] deals with human chondrocyte cell monolayer. Put plainly: Cell proliferation model: human chondrocyte monolayer, MTT assay. The format is cell-based. The settings on record: MTT at t=0 and after 4 days at 37° C./5% CO2. Here is the method: A. Chondrocyte monolayers (Cell Applications, Inc., San Diego, Calif.) derived from normal human cartilage were adhered on to a 24-well plate and shipped following the first doubling. Approximately 16000 cells per well were expected at the time the cells were received. Two plates were treated identically with PTH and appropriate control samples. Controls included cells treated with chondrocyte growth media for positive control (Cell Applications, Inc., San Diego, Calif.) and cells treated with basal media for negative control (Cell Applications, Inc., San Diego, Calif.).
B. After the cells are treated, one of the two plates was analyzed for cell viability (t=0 sample). The second plate was placed at 37° C., 5% CO2 incubator for 4 days, after which the plates were analyzed using the MTT assay.
C. MTT is a cell-permeable tetrazolium salt which is reduced by mitochondrial dehydrogenase activity to an insoluble colored formazan by viable cells with intact mitochondrial function or by nonmitochondrial NAD(P)H dehydrogenase activity from cells capable of generating a respiratory burst. […] We have employed a MTT reagent kit prepared by MatTek Corp for their units as in indicator of cell proliferation.
A human chondrocyte cell monolayer model was employed to examine cell proliferation (refer to Example 2). […]
(In general: Tetrazolium dyes change colour on reduction, which living cells bring about.)

“Also recorded” adds a separate entry of the source. Like-named read-outs stand apart in the source and are kept apart here. Ends that are not written are not given here.

As for “2-alkyl-4-hydroxyquinolines [pyo compound]”, the “concentration producing ciliostasis / inhibiting ciliary motility” value in the series on ciliary motility is 50 µg/mL.
For “9-desglycinamide, 8-arginine vasopressin”, in series [1], the “increase of bioavailability compared to aqueous solution without polymer” value is 3-5 fold.
For `CC(C)CC(N)B(O)O` (stereo not drawn) [boro-leucine], in the series on aminopeptidases, the “effectiveness in enzyme inhibition relative to bestatin” value is listed as “more than 100 times” and the “effectiveness in enzyme inhibition relative to puromycin” value was “more than 1,000 times”.
Regarding `CCN(CC)/[N+]([O-])=N/O.CCNCC` [diethylamine/NO], in series [2], the “rate (time) of NO release” value is less than 3 min.
Turning to `NCCN(CCN)/[N+]([O-])=N/O` [diethylenetriamine/NO (DETANO), diethylenetriamine/NO], in series [2], the “rate (time) of NO release” value is on record as “approximately 20 hours”.
On to “Ser Val Ser Glu Ile Gln Leu Met His Asn Leu Gly Lys His Leu Asn Ser Met Glu Arg Val Glu Trp Leu Arg Lys Lys Leu Gln Asp Val-NH2 (SVSEIQLMHNLGKHLNSMERVEWLRKKLQDV-NH2) [hPTH-(1-31)-NH2]”, for which the “restoration of bone loss” value with ovariectomized rat model was “fully active”.
As to calcitonin, the “type II collagen production” value in series [3] (20 μg calcitonin) and in series [3] (200 μg calcitonin) was “no effect” each time.
Turning to “human growth hormone: human growth hormone given nasally with or without N-acetyl-L-cysteine”, the results for the “nasal bioavailability of human growth hormone” value in series [4] (with N-acetyl-L-cysteine (ACS)) and in series [4] (without N-acetyl-L-cysteine) were 12.2% and 7.5%, respectively.
Turning to insulin-like growth factor I [IGF-I], the “type II collagen production” value in series [3] (5 μg IGF-I (positive control)) is given as “greater than 1.2 pg per culture”.

B1: PTH: Parathyroid hormone peptide tested in Example 4; which form (1-84 or 1-34) is not stated (peptide, UniProt P01270 32-115, looked up)
Parathyroid hormone: SVSEIQLMHNLGKHLNSMERVEWLRKKLQDVHNFVALGAPLAPRDAGSQRPRKKEDNVLVESHEKSLGEADKADVNVLTKAKSQ
modifications: Parathyroid hormone
Consider B1, for which the “chondrocyte proliferation (MTT assay)” value in series [5] (PTH in simple formulation (citrate buffer)) and in series [5] (PTH with permeation enhancers of Table 2) was “did not stimulate chondrocyte proliferation” each time. In addition, the “type II collagen production” value is given as “did not induce a substantial production of type II collagen” in series [3] (20 μg PTH in citrate buffer, 12 days at 37° C., 5% CO2); “did not induce a substantial production of type II collagen” in series [3] (20 μg PTH with permeation enhancers, 12 days); “significant increase in type II collagen; also recorded: modest amounts of type II collagen production” in series [3] (200 μg PTH in simple formulation, 12 days); “essentially no production of type II collagen; also recorded: did not induce any cartilage growth” in series [3] (high concentration of PTH (200 μg) with permeation enhancers, 12 days).
